For this series, the system named is iCell cardiomyocytes (human iPSC-derived cardiomyocytes). The series can be described thus: High-content imaging of cytotoxicity and mitochondrial integrity in iPSC-CMs. It counts as cell-based. The note with it: for viability at 0.01 µM / activity at 0.01 µM / viability at 0.1 µM / activity at 0.1 µM / viability at 1 µM / activity at 1 µM / viability at 10 µM / activity at 10 µM / viability at 100 µM / activity at 100 µM / minimal effective concentration: Homo sapiens; for viability at 0.01 µM / activity at 0.01 µM / viability at 0.1 µM / activity at 0.1 µM / viability at 1 µM / activity at 1 µM / viability at 10 µM / activity at 10 µM / viability at 100 µM / activity at 100 µM: 0.00 µM = 100.00; for viability at 0.1 µM / activity at 0.1 µM: 0.10 µM. A digest of the protocol:
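Human iPSC-derived cardiomyocytes were seeded on gelatin-coated 384-well plates at 5,000 cells per well and maintained for 12 d. Test chemicals were added as 10μL of 5× solutions to final concentrations of 0.01 to 100μM. Cells were stained with Hoechst 33342 and MitoTracker™ Orange, fixed in formaldehyde, and imaged by confocal high-content microscopy at 10× magnification.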

Where [1] appears, read: Cardiomyocyte, 1.5 h, read-out: cm.cam.90min.
Setting [2] is: Cardiomyocyte, 1.5 h, read-out: cm.mii.90min.
[3] abbreviates: Cardiomyocyte, 1.5 h, read-out: cm.mito.90min.
[4] abbreviates: Cardiomyocyte, 1.5 h, read-out: cm.tc.90min.
The mark [5] stands for this setting: Cardiomyocyte, 24 h, read-out: cm.cam.24hrs.
[6] abbreviates: Cardiomyocyte, 24 h, read-out: cm.mii.24hrs.
Setting [7] is: Cardiomyocyte, 24 h, read-out: cm.mito.24hrs.
The mark [8] stands for this setting: Cardiomyocyte, 24 h, read-out: cm.tc.24hrs.
The mark [9] stands for this setting: Cardiomyocyte, 1.5 h, cardiomyocytes (cm), cam, 90 min, read-out: POD cm.cam.90min.
Where [10] appears, read: Cardiomyocyte, 1.5 h, cardiomyocytes (cm), mii, 90 min, read-out: POD cm.mii.90min.
Setting [11] is: Cardiomyocyte, 1.5 h, cardiomyocytes (cm), mito, 90 min, read-out: POD cm.mito.90min.
[12] abbreviates: Cardiomyocyte, 1.5 h, cardiomyocytes (cm), tc, 90 min, read-out: POD cm.tc.90min.
Where [13] appears, read: Cardiomyocyte, 24 h, cardiomyocytes (cm), cam, 24 hrs, read-out: POD cm.cam.24hrs.
Setting [14] is: Cardiomyocyte, 24 h, cardiomyocytes (cm), mii, 24 hrs, read-out: POD cm.mii.24hrs.
Where [15] appears, read: Cardiomyocyte, 24 h, cardiomyocytes (cm), mito, 24 hrs, read-out: POD cm.mito.24hrs.
[16] abbreviates: Cardiomyocyte, 24 h, cardiomyocytes (cm), tc, 24 hrs, read-out: POD cm.tc.24hrs.

Where a name gives a salt, the structure may show the parent alone. Read-outs that look alike come from different tables or passages of the source.

We go through three compounds from PMC7377239, “Cardiovascular Effects of Polychlorinated Biphenyls and Their Major Metabolites” (Environmental Health Perspectives, 2020).

Take `COc1ccc(-c2ccc(Cl)cc2)cc1` [4'-OMe PCB3]: the viability at 0.01 µM came out at 95% under setting [1], 94.9% under setting [4], 104% under setting [5] and 105% under setting [8]. In addition, the activity at 0.01 µM worked out at 107% under setting [2], 94.4% under setting [3], 87% under setting [6] and 105% under setting [7]. Moreover, the viability at 0.1 µM by setting is: under setting [1], 96%; under setting [4], 96.1%; under setting [5], 102%; under setting [8], 102%. The activity at 0.1 µM by setting is: under setting [2], 114%; under setting [3], 96%; under setting [6], 85.8%; under setting [7], 104%. The viability at 1 µM reads like this: under setting [1], 103%; under setting [4], 103%; under setting [5], 104%; under setting [8], 104%. For the same compound, the activity at 1 µM was 103% under setting [2], 102% under setting [3], 98% under setting [6] and 104% under setting [7]. Further, the viability at 10 µM is 102% under setting [1], 101% under setting [4], 104% under setting [5] and 104% under setting [8]. Moreover, the activity at 10 µM by setting is: under setting [2], 109%; under setting [3], 101%; under setting [6], 83.8%; under setting [7], 104%. Further, the viability at 100 µM is 104% under setting [1], 105% under setting [4], 92.3% under setting [5] and 92.4% under setting [8]. In addition, the activity at 100 µM turned out to be 99.8% under setting [2], 104% under setting [3], 122% under setting [6] and 94.2% under setting [7]. For the same compound, the minimal effective concentration reads like this: (iPSC-CM, 1.5 h, iPSC-CM, read-out: cm.cam.90min POD) 100 µM; (iPSC-CM, 1.5 h, iPSC-CM, read-out: cm.mii.90min POD) 100 µM; (iPSC-CM, 1.5 h, iPSC-CM, read-out: cm.mito.90min POD) 100 µM; (iPSC-CM, 1.5 h, iPSC-CM, read-out: cm.tc.90min POD) 100 µM; (iPSC-CM, 24 h, iPSC-CM, read-out: cm.cam.24hrs POD) 82.9 µM; (iPSC-CM, 24 h, iPSC-CM, read-out: cm.mii.24hrs POD) 100 µM. Besides, the minimal effective concentration by setting is: (iPSC-CM, 24 h, iPSC-CM, read-out: cm.mito.24hrs POD) 100 µM; (iPSC-CM, 24 h, iPSC-CM, read-out: cm.tc.24hrs POD) 100 µM.

As for `COc1ccc(-c2ccc(Cl)cc2)cc1` [4'-OMe-PCB 3, 4′-methoxy-4-chlorobiphenyl], the minimal effective concentration was determined as 100 µM under setting [9]; 100 µM under setting [10]; 100 µM under setting [11]; 100 µM under setting [12]; 82.9 µM under setting [13]; 100 µM under setting [14]. For the same compound, the minimal effective concentration reads like this: under setting [15], 100 µM; under setting [16], 100 µM. Also, the “effect on cell viability in iPSC-CMs” value (iPSC-CMs, 0.01-100 μM, 90 min and 24 h) is recorded as “little effect on cell viability”.

With `O=S(=O)(O)Oc1ccc(-c2ccc(Cl)cc2)cc1` [4'-PCB 3 sulfate], the minimal effective concentration amounted to 100 µM under setting [9]; 100 µM under setting [10]; 100 µM under setting [11]; 100 µM under setting [12]; 100 µM under setting [13]; 53.5 µM under setting [14]. For the same compound, the minimal effective concentration is, setting by setting: under setting [15], 100 µM; under setting [16], 100 µM.
